Measurements taken from patent EP0091995B1, “New compound having antiinflammatory, analgesic and mucoregulating activity, process for its production and relative pharmaceutical compositions” (AUSONIA FARMACEUTICI S.r.l., priority 1982, dated 1983).

Assays:
[1] = test system: rabbits; assay: Anti-cough activity, cough induced by citric acid aerosol; settings: mean number of cough strokes; endoperitoneal route; Codeine 12.5 mg/kg, AFP-695 150 mg/kg
[2] = test system: male Wistar rat; assay: Bronchosecretogogue activity (Mawatari technique); type: in vivo; settings: 500 mg/kg/os; FlNa = Sodium fluoresceine
Text: The bronchosecretogogue activity has been determined in male Wistar rat by per os administration according to the method of Mawatari [Mawatari H., Kagoshima Daigaku Igaku-Zasshi, 27, 561 (1976)], comparing AFP-695 with carboxymethylcysteine and sobrerol at the doses hereinafter stated.

[3] = Pharmacokinetics, plasma and lung levels by gas chromatography; type: in vivo, rats; settings: 100 mg/kg per os; at 30 minutes, and in some instance also at 1 hour
Procedure: At the moment of treatment rats were fasting since 18 hours. Rats have been then sacrificed in groups of 4 at different times: 30 min., 1 h, 2 h, 4 h, 6 h.
The concentration both of unchanged products and of their metabolites have been measured by gas chromatography in plasma and in the lung.

[4] = test system: Sprague-Dawley rats; assay: Antiinflammatory activity, pleuritis by carrageenin (method of Vinegar); type: in vivo; settings: oral route
[5] = test system: Rats; assay: Gastrolesive action (gastric mucosa examination); type: in vivo; settings: rats fasting 18 hours; 5 hours 30 minutes after treatment; Ibuprofen 100 mg/kg/os, AFP-695 150 mg/kg/os
Procedure: 5 Hours and 30 minutes after treatments, the animals have been sacrificed and the stomach has been withdrawn for gastric mucosa examination.

[6] = test system: mouse; assay: Analgesic activity, writhings by phenylquinone; type: in vivo; settings: 100 mg/kg os
Procedure: The test of writhings by phenylquinone in the mouse has been used.
The two drugs have been administered per os 30 minutes […] intraperitoneal injection of phenylquinone.

[7] = Acute toxicity (method of Litchfield and Wilcoxon); settings: in vivo, oral, os
Text: The acute toxicity has been determined in Swiss mouse and in Wistar rat for different administration routes, according to the method of Litchfield J.T. and Wilcoxon [J. Pharm. Exp. Therap. 96, 99-113, (1949)].
The results obtained are reported in the following Table I; from the same it can be pointed out how AFP is endowed with a very low acute toxicity.

[8] = Solubility of the product of the Example; type: physicochemical
Text: Its structure is confirmed by analytical and spectroscopical data. • Elemental analysis: • for C23H3403(M.W. = 358.49) • calcd. % C = 77.05; H = 9.56 • found % C = 76.88; H = 9.60. • I.R. Spectrum • (liquid film; absorption band values are expressed in cm^-1): • stretch 0-H 3400-3250 • stretch C=O 1735 • stretch C-0 1205 • H^1 NMR Spectrum • (recorded in CDCI3, internal reference TMS; values of the chemical shifts are expressed in δ): • 0.65-1.2(m, 12H, -CH(CH3)2, C(CH3)2); • 1.3-2 (m, 12H, CH2―CH―CH2, CH2-CH, CH3-CH, OH mobile); • 2.3 (d, 3H, =C-CH3); • 3.5 (q, 1 H, CH3-CH-CO); • 4.7-5 (m, 1H,―CH―O―CO); • 5.3-5.6 (m, 1H, =CH-CH2); • 6.6-7 (m, 4H, aromatics).

[9] = test system: male rabbit; assay: Mucosecretolytic activity (technique of Giraldez et al); type: in vivo; settings: 500 mg/kg/os
Text: The mucosecretolytic activity has been studied in the male rabbit according to the technique of Giraldez, Grass and Bruseghini(Abstr. Comp. Int. Pharm. N. 1086-Paris 1978), by administration by the oral route, comparing AFP-695 with carboxymethylcysteine and sobrerol at the dose hereinafter stated.

[10] = test system: rat; assay: Antiinflammatory activity, subplantar edema by carrageenin; settings: Ibuprofen 100 mg/kg os, AFP-695 150 mg/kg os
Procedure: Tests have been performed on the rat, employing the test of the subplantar edema induced by carrageenin. […] After edema induction, the animals of each group have been controlled, every 60 minutes for 5 consecutive hours, in order to point out the evolution of the inflammatory process.

SMILES	% Inhibition in comparison with controls [1] [%]	% Increase of FlNa(*) in comparison with controls [2] [%]	decrease of leucocytes number ([4]; 24th hour, equiponderant doses) [%]	Mean ulcers size [5] [mm]	% Inhibition in comparison with controls [6] [%]	Mean No. of writhings [6]	No. animals with writhings [6]	% Increase of secretion in comparison with controls [9] [%]	AREA % Inhibition in comparison with controls [10] [%]	also measured
CC1=CCC(C(C)(C)O)CC1OC(=O)C(C)c1ccc(CC(C)C)cc1 (stereo not drawn) [AFP-695, 2-methyl-5-(1-hydroxy-1-methylethyl)-cyclohex-2-enyl 2-(4-isobutylphenyl)propionate]	78.1	51.6	60.89	0.9 ± 0.3	71.09	3.7 ± 1.2	3/10	35.7	42.8	unchanged AFP-695 in plasma [3]: has been found in plasma; decrease of the exudate volume, in comparison with control ([4]; 24th hour, equiponderant doses): 51.02%; decrease of the number of leucocytes ([4]; fifth hour after treatment): 70.91%; decrease of the exudate ([4]; fifth hour after treatment, 30 minutes before intrapleural injection): 41.84%; LD50 ([7]; Swiss, mouse): 1800 mg/kg; LD50 ([7]; Wistar, rat): 2200 mg/kg; solubility in the common organic solvents ([8]; common organic solvents): easily soluble in the common organic solvents; solubility in water ([8]; water): substantially insoluble in water; AREA Absolute value ([10]; area of limb volume over 0-5 hours): 156.2; MEAN LIMB VOLUME AT DIFFERENT HOURS AFTER TREATMENT 0 ([10]; hour 0, 30 minutes before carrageenin): 22.8; MEAN LIMB VOLUME AT DIFFERENT HOURS AFTER TREATMENT 1 ([10]; hour 1): 27.2; MEAN LIMB VOLUME AT DIFFERENT HOURS AFTER TREATMENT 2 ([10]; hour 2): 29.6; MEAN LIMB VOLUME AT DIFFERENT HOURS AFTER TREATMENT 3 ([10]; hour 3): 31.4; MEAN LIMB VOLUME AT DIFFERENT HOURS AFTER TREATMENT 4 ([10]; hour 4): 32.6; MEAN LIMB VOLUME AT DIFFERENT HOURS AFTER TREATMENT 5 ([10]; hour 5): 34.9
COc1ccc2c3c1O[C@H]1[C@@H](O)C=C[C@H]4[C@@H](C2)N(C)CC[C@@]341 [Codeine, codeine, reference compound]	76.7	–	–	–	–	–	–	–	–	–
CC(C)Cc1ccc(C(C)C(=O)O)cc1 (stereo not drawn) [Ibuprofen, 2-(4-isobutylphenyl)-propionic acid, reference compound]	–	–	5.58	9.6 ± 1.8	89.84	1.3 ± 0.5	1/10	–	44.2	–
CC1=CCC(C(C)(C)O)CC1O (stereo not drawn) [Sobrerol, 2-methyl-5-(1-hydroxy-1-methyl-ethyl)-2-cyclohexen-1-ol, reference compound]	–	33.4	–	–	–	–	–	36.8	–	–
